# Measured values reported in patent publication US20250281590A1, “IMMUNOGENIC COMPOSITIONS COMPRISING CONJUGATED ESCHERICHIA COLI SACCHARIDES AND USES THEREOF” (Pfizer Inc., priority 2024, published 2025).
# Legend:
# Test in all cases: IgG dLIA with pAb standards, NHP sera, CpG study (Example 5)
# Type in all cases: in vivo, rhesus macaque
# [1] = test system: E. coli O-antigen serotype O1a; conditions: 4 valent O-antigen SCP with CpG 1800 μg; dLIA standard (pAb/mAb) not specified; listed as CpG
# Description: (§1) The 4-plex O-antigen IgG dLIA serology assay was completed as follows: The primate serology assay utilized the same O-antigen MagPlex®-C microspheres (Luminex) as the mouse serology assay described in Example 3, above. Microspheres were incubated with serially diluted NHP serum samples, controls, and human polyclonal serum standards overnight at 2-8° C. while shaking. In this case, bound serotype-specific IgG was detected with PE-conjugated goat anti-human IgG. Fcγ fragment-specific secondary antibody (Jackson Laboratories) and fluorescence was measured on the FlexMap 3D instrument ([…]). Human serum containing IgG to all four O-antigens was used as an internal standard for interpolating NHP serum IgG concentrations. […] Lower limit of quantification (LLOQ) was defined as 2 U/mL.
# (§2) In this study, the adjuvanting effect of nucleotide adjuvant CpG 24555 on immunogenicity of E. coli O-antigen SCP glycoconjugates of serotypes O1a, O2, O6, and O25b was assessed in a NHP (Rhesus Macaques) model.
# (§3) 20 male rhesus macaques were selected for this study. Three groups of Rhesus macaques were vaccinated with the 4 valent O-antigen SCP glycoconjugates including one group without CpG adjuvant, one group with CpG adjuvant and a lower dose of the 4 valent O-antigen SCP glycoconjugates, and one group with CpG adjuvant and a higher dose of 4 valent O-antigen SCP glycoconjugates. The no adjuvant control group, as well as the group with CpG adjuvant and the higher dose of glycoconjugates included 2 μg of serotypes O1a, O2, and O6, as well as 4 μg of serotype O25b. The group with CpG adjuvant and the lower dose of glycoconjugates included 0.5 μg of serotypes O1a, O2, and O6, as well as 1 μg of serotype O25b. Vaccination was administered at months 0, 2, and 6. Animals were bled prior to vaccination and at weeks 1, 2, 4, 6, 9, 10, 12, 25, and 26. 0.5 mL of vaccine formulation was injected intramuscularly (IM).
# (§4) Geometric mean titers (GMTs) of IgG antibodies specific for each of the respective 0-antigen serotypes O1a, O2, O6, and O25b were quantified using a Luminex 4-plex dLIA assay. The 4-plex O-antigen IgG dLIA serology assay was completed as described in Example 4, above. Table 21 and 22, below, present data for IgG GMT titers for each of serotypes O1a, O2, O6, and O25b.
# [2] = test system: E. coli O-antigen serotype O25b; conditions: 4 valent O-antigen SCP with CpG 1800 μg; after each vaccination; dLIA standard (pAb/mAb) not specified; listed as CpG
# Description: as §1, §2, §3, §4
# [3] = test system: E. coli O-antigen serotype O2; conditions: 4 valent O-antigen SCP with CpG 1800 μg, dLIA standard (pAb/mAb) not specified
# Description: as §1, §2, §3, §4
# [4] = test system: E. coli O-antigen serotype O6; conditions: 4 valent O-antigen SCP with CpG 1800 μg, dLIA standard (pAb/mAb) not specified
# Description: as §1, §2, §3, §4
substance,measurement,setting,value
CpG 24555 [CpG adjuvant],"Serotype O1a IgG titers, fold increase vs. unadjuvanted titers",[1],greater than twenty-fold increases
same,"Serotype O25b IgG titers, fold increase vs. unadjuvanted titers",[2],greater than twenty-fold increases
same,"Serotype O2 IgG titers, fold increase vs. unadjuvanted titers",[3],less than 10 fold
same,"Serotype O2 IgG titers, fold increase vs. unadjuvanted titers",[3]; listed as CpG,up to ten-fold increases
same,"Serotype O6 IgG titers, fold increase vs. unadjuvanted titers",[4],less than 10 fold
same,"Serotype O6 IgG titers, fold increase vs. unadjuvanted titers",[4]; listed as CpG,up to ten-fold increases
